{"source": "the OPERA property sets (Mansouri et al. 2018)"}
{"units": {"melting point": "°C", "boiling point": "°C"}}
{"smiles": "O=c1[nH]c(=O)n([C@H]2C[C@H](O)[C@@H](CO)O2)cc1Br", "melting point": 192}
{"smiles": "N#Cc1ccccc1[N+](=O)[O-]", "melting point": 108}
{"smiles": "O=C(O)CNC(=O)c1ccccc1O", "melting point": 168}
{"smiles": "CC(C)(C(N)=O)n1nnc2ccccc21", "melting point": 187}
{"smiles": "Nc1c(F)c(F)c(F)c(F)c1F", "boiling point": 153, "melting point": 35.5}
{"smiles": "CCCCCOc1ccccc1", "boiling point": 200}
{"smiles": "c1ccc(C2CC2)cc1", "boiling point": 174, "melting point": -31}
{"smiles": "CCOc1ccc(C#N)cc1", "boiling point": 258, "melting point": 61.5}
{"smiles": "CC(C)CC(=O)c1ccccc1", "boiling point": 236}
{"smiles": "NC(=O)CN1CCCC1=O", "melting point": 152}
{"smiles": "Cc1cc(C)c(O)c(C)c1", "boiling point": 220, "log10 vapour pressure (mmHg)": -1.76, "melting point": 73, "ready biodegradability": "not readily biodegradable"}
{"smiles": "CCC1CCCS1", "note": "(centres undefined)", "boiling point": 157}
{"smiles": "C1CCCSCC1", "boiling point": 174, "melting point": 0.5}
{"smiles": "C1CCNCC1", "boiling point": 106, "log10 Henry constant (atm·m³/mol)": -5.35, "log10 Koa": 4.04, "log10 vapour pressure (mmHg)": 1.51, "melting point": -7, "ready biodegradability": "readily biodegradable"}
{"smiles": "CC(C)(C)c1cc(C=O)cc(C(C)(C)C)c1O", "melting point": 186}
{"smiles": "Nc1ccnc2ccccc12", "melting point": 155}
{"smiles": "CCCCCCCCCCCCCCCC(C)=O", "boiling point": 320, "melting point": 48}
{"smiles": "CCCCCCCCCCCCCCCCCCCC", "boiling point": 343, "log10 biodegradation half-life (days)": 1.4, "log10 vapour pressure (mmHg)": -5.34, "melting point": 36.8, "ready biodegradability": "readily biodegradable"}
{"smiles": "O=C(O)c1ccc(Br)c([N+](=O)[O-])c1", "melting point": 204}
{"smiles": "C=C(C(=O)O)c1ccccc1", "melting point": 106, "ready biodegradability": "readily biodegradable"}
{"smiles": "CC(C)c1ccncc1", "boiling point": 178, "melting point": -54.9}
{"smiles": "O=[N+]([O-])Nc1ccccc1", "melting point": 47.3}
{"smiles": "O=C(O)C(O)c1ccccc1", "note": "(racemic)", "melting point": 124}
{"smiles": "Clc1ccc(C(c2ccccc2Cl)C(Cl)Cl)cc1", "note": "(centres undefined)", "log10 vapour pressure (mmHg)": -5.71, "melting point": 77}
{"smiles": "O=C1OC(c2ccc(O)cc2)(c2ccc(O)cc2)c2ccccc21", "melting point": 262, "ready biodegradability": "not readily biodegradable"}
{"smiles": "CC(C)(C)S(=O)(=O)O", "melting point": 113}
{"smiles": "N#CC(O)C(Cl)(Cl)Cl", "note": "(centres undefined)", "melting point": 61}
{"smiles": "CCOC(=O)[C@H](CCc1ccccc1)N[C@H]1CCc2ccccc2N(CC(=O)O)C1=O", "melting point": 148}
{"smiles": "O=S1OCC2C(CO1)C1(Cl)C(Cl)=C(Cl)C2(Cl)C1(Cl)Cl", "note": "(centres undefined)", "log10 Henry constant (atm·m³/mol)": -4.62, "log10 Koc (L/kg)": 4.11, "log10 vapour pressure (mmHg)": -6.17, "melting point": 106}
{"smiles": "CCCC(N)C(=O)O", "note": "(racemic)", "melting point": 305}
{"smiles": "CCOCCOCCOCC", "boiling point": 188, "log10 vapour pressure (mmHg)": -0.284, "melting point": -45}
{"smiles": "CC1(C)[C@@H](OC(=O)CCC(=O)O)CC[C@]2(C)[C@H]3C(=O)C=C4[C@@H]5C[C@@](C)(C(=O)O)CC[C@]5(C)CC[C@@]4(C)[C@]3(C)CC[C@@H]12", "melting point": 292}
{"smiles": "COO", "log10 Henry constant (atm·m³/mol)": -5.34}
{"smiles": "CC(C)(C)OCCO", "ready biodegradability": "not readily biodegradable"}
{"smiles": "Cc1cc(C)c(Cl)c(C)c1", "boiling point": 205}
{"smiles": "CN1[C@H]2CC[C@@H]1[C@@H](C(=O)O)[C@H](O)C2", "melting point": 205}
{"smiles": "O=C(Oc1cccc(O)c1)c1ccccc1", "melting point": 134, "ready biodegradability": "readily biodegradable"}
{"smiles": "c1ccc(-c2cc3ccccc3[nH]2)cc1", "melting point": 190, "ready biodegradability": "not readily biodegradable"}
{"smiles": "CC(C)CCOC(=O)CC(C)C", "boiling point": 190, "log10 vapour pressure (mmHg)": -0.0526}
{"smiles": "c1ccc2ocnc2c1", "boiling point": 182, "melting point": 31}
{"smiles": "C[C@@H]1N[C@@H]2CCCCCCCC(=O)O[C@H]3CC[C@@H](CCCCCCCC(=O)O[C@H]1CC2)N[C@H]3C", "melting point": 121}
{"smiles": "O=C(Cl)C(Cl)(Cl)Cl", "boiling point": 118, "log10 Henry constant (atm·m³/mol)": -3.29, "log10 vapour pressure (mmHg)": 1.33}
{"smiles": "CCCCCCCCCCCCCCCCCCOS(=O)(=O)[O][Na]", "ready biodegradability": "readily biodegradable"}
{"smiles": "O=C1c2ccccc2-c2ccccc21", "boiling point": 342, "melting point": 84}
{"smiles": "O=C(O)c1cc([N+](=O)[O-])ccc1Cl", "melting point": 166}
{"smiles": "CCc1oc2ccccc2c1C(=O)c1cc(Br)c(O)c(Br)c1", "melting point": 151}
{"smiles": "C[C@]12CC[C@H](O)C=C1CC[C@@H]1[C@@H]2CC[C@]2(C)[C@@H](c3ccc(=O)oc3)CC[C@]12O", "melting point": 235}
{"smiles": "Cc1ccc2nc(C)cc(C)c2c1", "boiling point": 280, "melting point": 68}
{"smiles": "O=[N+]([O-])c1ccc(-c2ccc([N+](=O)[O-])cc2)cc1", "log10 vapour pressure (mmHg)": -7.56}
{"smiles": "Cc1c(Br)cc(Br)c(O)c1Br", "melting point": 84}
{"smiles": "C=CCNC(N)=S", "melting point": 78}
{"smiles": "c1ccc(C2(c3ccccc3)CC2C2=NCCN2)cc1", "note": "(centres undefined)", "melting point": 104}
{"smiles": "CC(=O)c1ccc(-c2ccccc2)cc1", "boiling point": 326, "log10 Koc (L/kg)": 3.22, "melting point": 121}
{"smiles": "COP(=S)(OC)Oc1cc(Cl)c(Br)cc1Cl", "log10 vapour pressure (mmHg)": -3.89, "melting point": 53.5}
{"smiles": "CCCCCCCCCCCCCCCC(CCCC)c1ccccc1", "note": "(centres undefined)", "melting point": 30.2}
{"smiles": "O=C(Nc1ccccc1)OCC1(COC(=O)Nc2ccccc2)CCCC1", "melting point": 152}
{"smiles": "FC(F)(F)C#CC(F)(F)F", "boiling point": -24.6, "melting point": -117}
{"smiles": "CC(C)CB(CC(C)C)CC(C)C", "boiling point": 188, "melting point": -88}
{"smiles": "ClC1=C(Cl)C(Cl)(Cl)C(Cl)(Cl)C1(Cl)Cl", "boiling point": 283, "melting point": 40}
{"smiles": "COC(=O)c1cc2ccccc2cc1O", "melting point": 75.5}
{"smiles": "Cc1ccc(Br)cc1Br", "melting point": -9.7}
{"smiles": "N#Cc1ccc(Cl)c([N+](=O)[O-])c1", "melting point": 99}
{"smiles": "CCCCCCCCCCCCN1CCCCCC1=O", "melting point": -7}
{"smiles": "CC(C)CCCC(C)CCO", "note": "(centres undefined)", "boiling point": 212}
{"smiles": "CNC(=O)NC", "boiling point": 269, "melting point": 108, "ready biodegradability": "not readily biodegradable"}
{"smiles": "N#Cc1cccc(C=O)c1", "boiling point": 210, "melting point": 76.5}
